Experimental data published in US10954237B2, “JAK inhibitors containing a 4-membered heterocyclic amide” (THERAVANCE BIOPHARMA R&D IP, LLC, priority 2017, dated 2021).

Assays:
[1] = tested on: IL-5 mediated survival of human eosinophils; assay: IL-5 mediated eosinophil survival assay; format: cell-based
Experimental: The potency of the test compound for IL-5 mediated eosinophil survival was measured in human eosinophils isolated from human whole blood (AllCells). Because IL-5 signals through JAK, this assay provides a measure of JAK cellular potency.
Human eosinophils were isolated from fresh human whole blood (AllCells) of healthy donors. Blood was mixed with 4.5% Dextran (Sigma-Aldrich) in a 0.9% sodium chloride solution (Sigma-Aldrich). Red blood cells were left to sediment for 35 minutes. The leukocyte rich upper layer was removed and layered over Ficoll-Paque (GE Healthcare) and centrifuged at 600 g for 30 minutes. The plasma and mononuclear cell layers were removed before the granulocyte layer was lysed with water to remove any contaminating red blood cells. […] Purity was analyzed using a LSRII flow cytometer (BD Biosciences). […]
After cytokine stimulation, cells were centrifuged at 300 g for 5 min and washed twice with cold DPBS (Life Technologies). To access viability and apoptosis, cells were incubated with Propidium Iodide (Thermo Fisher Scientific) and APC Annexin V (BD Biosciences) and analyzed using a LSRII flow cytometer (BD Biosciences). IC50 values were determined from analysis of the viability curves of percent cell viability vs compound concentration. Data are expressed as pIC50 (negative decadic logarithm IC50) values.

[2] = tested on: IL-2/anti-CD3 stimulated IFNγ in human PBMCs; assay: Inhibition of IL-2/anti-CD3 stimulated IFNγ in human PBMCs; format: cell-based
Experimental: The potency of the test compound for inhibition of interleukin-2 (IL-2)/anti-CD3 stimulated interferon gamma (IFNγ) was measured in human peripheral blood mononuclear cells (PBMCs) isolated from human whole blood (Stanford Blood Center). Because IL-2 signals through JAK, this assay provides a measure of JAK cellular potency.
(1) Human peripheral blood mononuclear cells (PBMC) were isolated from human whole blood of healthy donors using a ficoll gradient. Cells were cultured in a 37° C., 5% CO2 humidified incubator in RPMI (Life Technologies) supplemented with 10% Heat Inactivated Fetal Bovine Serum (FBS, Life Technologies), 2 mM Glutamax (Life Technologies), 25 mM HEPES (Life Technologies) and 1× Pen/Strep (Life Technologies). Cells were seeded at 200,000 cells/well in media (50 μL) and cultured for 1 h. Compounds were serially diluted in DMSO and then diluted another 500-fold (to a 2× final assay concentration) in media. […]
(2) After cytokine stimulation, cells were centrifuged at 500 g for 5 min and supernatants removed and frozen at −80° C. To determine the inhibitory potency of the test compound in response to IL-2/anti-CD3, supernatant IFNγ concentrations were measured via ELISA (R&D Systems). IC50 values were determined from analysis of the inhibition curves of concentration of IFNγ vs compound concentration. Data are expressed as pIC50 (negative decadic logarithm IC50) values.

[3] = tested on: IFNγ induced CXCL10 secretion; assay: IFNγ induced CXCL10 in human 3D airway cultures; format: cell-based
Experimental: EpiAirway tissue cultures were obtained from Mattek (AIR-100). Cultures were derived from asthmatic donors. In a cell culture insert, human derived tracheal/bronchial epithelial cells were grown and differentiated on a porous membrane support, allowing an air-liquid interface with warmed culture medium below the cells and a gaseous test atmosphere above. Tissues were cultured in maintenance media (Mattek, AIR-100-MM) in a 37° C., 5% CO2 humidified incubator. Four donors were tested. On Day 0, tissue cultures were treated with test compounds at 10 μM, 1 μM and/or 0.1 μM. Compounds were diluted in dimethyl sulfoxide (DMSO, Sigma) to a final concentration of 0.1%. DMSO at 0.1% was used as a vehicle control. Test compounds were incubated with cultures for 1 hour at 37° C., 5% CO2, followed by the addition of pre-warmed media containing IFNγ (R&D Systems) or IL-27 (R&D Systems) at a final concentration at 100 ng/ml. Tissue cultures were maintained for 8 days. Media was replaced every 2 days with fresh media containing compounds and IFNγ or IL-27. On Day 8, tissue cultures and supernatants were collected for analysis. […] Data is expressed as % Inhibition+/−standard deviation (±STDV). Percent inhibition was determined by compound inhibitory potency against IFNγ or IL-27 induced CXCL10 or CXCL9 secretion compared to vehicle treated cells. […]

[4] = tested on: IL-6 stimulated STAT3 phosphorylation in CD3+ T cells; assay: Inhibition of IL-6 stimulated pSTAT3 in CD3+ T cells; format: cell-based, human
Excerpt: A protocol analogous to that of Assay 10 was used to determine the potency of the test compound for inhibition of interleuken-6 (IL-6) stimulated STAT3 phosphorylation. An Alexa Fluor 647 conjugated anti-pSTAT3 antibody (pY705, Clone 4/P, BD Biosciences) was used to detect STAT3 phosphorylation.

[5] = Pharmacokinetics in plasma and lung in mouse; format: in vivo; details: oral aspiration, lung AUC / plasma AUC

SMILES | IL-5 mediated human eosinophil survival (in words) [1] | anti-CD3 and IL-2 induced release of IFNγ from activated human peripheral blood-isolated T cells (in words) [2] | inhibition at 10 µM [3] | IL-6 signaling (in words) [4] | Lung to Plasma ratio Assay 3 [5]
CCc1cc(O)c(F)cc1-c1ccc2c(-c3nc4c([nH]3)CN(C(C)C)[C@H](C(=O)N3CC(N(C)C)C3)C4)n[nH]c2c1 [Example 2, (S)-(3-(dimethylamino)azetidin-1-yl)(2-(6-(2-ethyl-5-fluoro-4-hydroxyphenyl)-1H-indazol-3-yl)-5-isopropyl-4,5,6,7-tetrahydro-3H-imidazo[4,5-c]pyridin-6-yl)methanone] | potently inhibit | inhibit | 101% | inhibit | –
CCCN1Cc2[nH]c(-c3n[nH]c4cc(-c5cc(F)c(O)cc5CC)ccc34)nc2C[C@H]1C(=O)N1CC(N(C)C)C1 [Example 4, (S)-(3-(dimethylamino)azetidin-1-yl)(2-(6-(2-ethyl-5-fluoro-4-hydroxyphenyl)-1H-indazol-3-yl)-5-propyl-4,5,6,7-tetrahydro-3H-imidazo[4,5-c]pyridin-6-yl)methanone] | – | – | – | – | C (C denotes a ratio between 20 and 50)
